According to ChEMBL document CHEMBL3045837, “Tobacco mosaic virus (TMV) inhibitors from Picrasma quassioides Benn” (J Agric Food Chem, 2009):
The source made the active and inactive calls. The rule behind the calls is not given here.

Legend:
[1] = test system: Tobacco mosaic virus; experiment: Antiviral activity against Tobacco mosaic virus U1 (TMV) infected Nicotiana tabacum cv. K326 leaves assessed as inhibition of viral replication at 50 ug/mL measured 48 hr after compound exposure by leaf-disk method; type: functional; conditions: U1, 48 h
[2] = test system: Tobacco mosaic virus; experiment: Antiviral activity against Tobacco mosaic virus U1 (TMV) infected Nicotiana glutinosa leaves assessed as inhibition of viral infection at 50 ug/mL using compound pre-treated virus suspension measured 5 to 6 days after compound exposure; type: functional; conditions: U1, in Nicotiana glutinosa
[3] = test system: Tobacco mosaic virus; experiment: Antiviral activity against Tobacco mosaic virus U1 (TMV) infected Nicotiana tabacum cv. K326 leaves assessed as inhibition of viral replication at 50 ug/mL in presence of 25 ug/mL quassinoid nigakilactone B measured 48 hr after compound exposure by leaf-disk method; type: functional
[4] = test system: Tobacco mosaic virus; experiment: Antiviral activity against Tobacco mosaic virus U1 (TMV) infected Nicotiana tabacum cv. K326 leaves assessed as inhibition of viral replication measured 48 hr after compound exposure by leaf-disk method; type: functional, organism-based; conditions: U1, 48 h
[5] = test system: Tobacco mosaic virus; experiment: Antiviral activity against Tobacco mosaic virus U1 (TMV) infected Nicotiana glutinosa leaves assessed as inhibition of viral infection at 50 ug/mL using compound pre-treated virus suspension in presence of 25 ug/mL quassinoid nigakilactone B measured 5 to 6 days after compound exposure; type: functional
[6] = test system: Tobacco mosaic virus; experiment: Antiviral activity against Tobacco mosaic virus U1 (TMV) infected Nicotiana tabacum cv. K326 leaves assessed as inhibition of viral replication in presence of 25 ug/mL quassinoid nigakilactone B measured 48 hr after compound exposure by leaf-disk method; type: functional, organism-based; conditions: U1, 48 h
[7] = test system: Tobacco mosaic virus; experiment: Antiviral activity against Tobacco mosaic virus U1 (TMV) infected Nicotiana glutinosa leaves assessed as inhibition of viral replication at 50 ug/mL measured 48 hr after compound exposure by half leaf method; type: functional; conditions: U1, in Nicotiana glutinosa
[8] = test system: Tobacco mosaic virus; experiment: Antiviral activity against Tobacco mosaic virus U1 (TMV) infected Nicotiana glutinosa leaves assessed as inhibition of viral replication at 50 ug/mL in presence of 25 ug/mL quassinoid nigakilactone B measured 48 hr after compound exposure by half leaf method; type: functional
[9] = test system: Tobacco mosaic virus; experiment: Inhibition of Tobacco mosaic virus U1 (TMV) coat protein accumulation using virus infected Nicotiana tabacum cv. K326 leaves at 50 ug/mL by SDS-PAGE and Western blotting method; type: functional, organism-based
[10] = test system: Tobacco mosaic virus; experiment: Inhibition of Tobacco mosaic virus U1 (TMV) coat protein accumulation using virus infected Nicotiana tabacum cv. K326 leaves by SDS-PAGE and Western blotting method; type: functional, organism-based

EC50 [4] [µM]	EC50 [6] [µM]	SMILES	inhibition at 50 µg/mL [1] [%]	inhibition at 50 µg/mL [2] [%]	inhibition (INH) [3] [%]	inhibition (INH) [5] [%]	inhibition at 50 µg/mL [7] [%]	inhibition (INH) [8] [%]	inhibition [9]	inhibition [10]
–	–	COC1=C[C@@H](C)[C@@H]2C[C@H]3OC(=O)C[C@H]4[C@@H](C)[C@H](OC)[C@@H](O)[C@H]([C@@]2(C)C1=O)[C@@]34C [NIGAKILACTONE B]	3.2	10	–	–	6.7	–	inactive	–
–	–	O=C1NC(=O)c2[nH]c3ccccc3c2C1=O	29.5	44.4	35.8	52.1	29.4	33.3	–	–
–	–	C=Cc1ncc(OC)c2c1[nH]c1c(OC)cccc12	39.7	53.3	63	58.3	38.5	47.1	–	–
131	78	COc1cccc2c1[nH]c1c(CCC(=O)c3nccc4c3[nH]c3ccccc34)ncc(OC)c12	28.9	45.5	64.8	68.3	39.4	52.4	–	–
189	130	COc1c(OC)c2nccc3c4ccccc4n(c1=O)c23 [4,5-DIMETHOXYCANTHIN-6-ONE]	42.6	58.3	59	61.1	33.3	43.8	–	–
257	183	COc1cccc2c3c([nH]c12)C(=O)NC(=O)C3=O	35.1	50	59.8	55.9	39.5	47.3	–	–
–	–	COc1c(O)c2nccc3c4ccccc4n(c1=O)c23 [PICRASIDINE Q]	25.6	42.9	52.6	66.7	35.7	53.8	–	–
179	115	COC(=O)c1nccc2c1[nH]c1ccccc12	60.4	71.4	71.9	73.3	47.4	68.4	–	Dose-dependent effect
–	–	COC(=O)c1ncc(O)c2c1[nH]c1ccccc12	45.7	60	62.3	69.2	41.7	55.6	–	–
–	–	CCc1nccc2c1[nH]c1c(OC)cccc12	20.9	45.5	48.4	50	25	36.4	–	–
–	–	COc1cc2nccc3c4ccccc4n(c1=O)c23 [5-METHOXYCANTHINONE]	27.5	36.4	45.7	58.3	40	50	–	–

SMILES	EC50 [4] [µM]	EC50 [6] [µM]	inhibition at 50 µg/mL [1] [%]	inhibition at 50 µg/mL [2] [%]	inhibition (INH) [3] [%]	inhibition (INH) [5] [%]	inhibition at 50 µg/mL [7] [%]	inhibition (INH) [8] [%]	inhibition [9]	inhibition [10]
CNCC(=O)N[C@@H](CO)C(=O)N[C@H]1[C@H](O)[C@@H](O)[C@H](n2ccc(N)nc2=O)O[C@@H]1C(N)=O [NINGNANMYCIN]	135	129	51	60	52.6	55.6	54.5	53.8	–	–
